Measured values: the supplement of paper PMC12463676, “Small-molecule dissolution of stress granules by redox modulation benefits ALS models” (Nature Chemical Biology, 2025)

Compound: NC(=O)CCCCC1CCSS1 [lipoamide]
Experiment: thermal stability z-score vs DMSO; higher = more thermally stabilized by treatment
Conditions: HeLa; lipoamide concentration 100 µM; arsenate co-treatment: 1 mM arsenate 1 h
Procedure: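 Cellular thermal proteome profiling in HeLa cells. Cells were treated with 100 µM lipoamide for 1 h, with or without 1 mM arsenate for a further 1 h, then heated to ten temperatures (37-66.3 °C), and soluble protein was quantified by TMT mass spectrometry relative to 0.1% DMSO controls. The thermal stability score (sum of log2 fold changes minus the abundance score) was transformed to a z-score; mean of n = 3 experiments.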
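Note: each temperature applied for 3 min, abundance score taken as mean log2 fold change at the two lowest temperatures, z-score obtained by mean subtraction and division by SD.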

Sequence of UniProt Q14241 (Q14241 whole entry): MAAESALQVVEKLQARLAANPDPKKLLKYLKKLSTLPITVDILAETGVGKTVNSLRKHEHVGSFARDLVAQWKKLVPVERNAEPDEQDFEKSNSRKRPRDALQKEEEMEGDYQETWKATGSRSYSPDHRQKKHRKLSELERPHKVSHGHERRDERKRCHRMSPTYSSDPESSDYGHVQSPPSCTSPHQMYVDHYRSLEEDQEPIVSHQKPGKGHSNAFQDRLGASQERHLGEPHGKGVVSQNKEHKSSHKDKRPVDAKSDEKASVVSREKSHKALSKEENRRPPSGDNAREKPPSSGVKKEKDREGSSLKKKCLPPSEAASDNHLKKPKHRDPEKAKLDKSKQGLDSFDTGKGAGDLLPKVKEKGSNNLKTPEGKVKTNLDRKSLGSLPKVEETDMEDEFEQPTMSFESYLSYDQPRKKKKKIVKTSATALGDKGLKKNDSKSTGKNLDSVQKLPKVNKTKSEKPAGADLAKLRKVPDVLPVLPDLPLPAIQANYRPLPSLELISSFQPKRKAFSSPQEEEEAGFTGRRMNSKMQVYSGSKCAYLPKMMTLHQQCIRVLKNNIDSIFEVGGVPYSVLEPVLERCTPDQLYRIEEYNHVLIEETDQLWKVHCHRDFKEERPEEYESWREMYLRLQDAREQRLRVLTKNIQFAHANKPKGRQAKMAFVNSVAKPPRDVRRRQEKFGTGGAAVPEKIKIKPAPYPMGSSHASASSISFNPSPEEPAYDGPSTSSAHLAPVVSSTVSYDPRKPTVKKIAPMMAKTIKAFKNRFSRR
Sequence of UniProt P35221 (P35221 whole entry): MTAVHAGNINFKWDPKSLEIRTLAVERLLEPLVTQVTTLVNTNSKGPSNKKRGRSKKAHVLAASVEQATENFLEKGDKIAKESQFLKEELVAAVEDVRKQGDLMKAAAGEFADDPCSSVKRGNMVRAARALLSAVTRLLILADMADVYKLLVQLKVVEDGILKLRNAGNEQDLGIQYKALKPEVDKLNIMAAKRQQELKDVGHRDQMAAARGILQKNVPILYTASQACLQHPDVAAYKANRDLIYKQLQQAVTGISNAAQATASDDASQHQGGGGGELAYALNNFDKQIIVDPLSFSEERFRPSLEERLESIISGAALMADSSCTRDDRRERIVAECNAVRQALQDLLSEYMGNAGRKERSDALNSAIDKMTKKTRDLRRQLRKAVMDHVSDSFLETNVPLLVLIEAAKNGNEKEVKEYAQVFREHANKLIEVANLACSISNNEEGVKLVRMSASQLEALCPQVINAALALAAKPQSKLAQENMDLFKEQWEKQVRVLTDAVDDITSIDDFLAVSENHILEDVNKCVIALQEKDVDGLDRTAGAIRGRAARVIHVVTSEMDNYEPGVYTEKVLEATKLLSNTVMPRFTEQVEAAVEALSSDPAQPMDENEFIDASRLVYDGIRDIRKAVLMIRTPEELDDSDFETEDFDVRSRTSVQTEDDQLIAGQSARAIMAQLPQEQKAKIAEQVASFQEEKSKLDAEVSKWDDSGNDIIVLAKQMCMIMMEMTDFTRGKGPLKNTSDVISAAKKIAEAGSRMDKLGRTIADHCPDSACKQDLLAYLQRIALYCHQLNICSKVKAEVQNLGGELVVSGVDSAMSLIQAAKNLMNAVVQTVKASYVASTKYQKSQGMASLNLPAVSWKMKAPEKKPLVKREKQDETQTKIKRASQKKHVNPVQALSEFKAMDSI
Sequence of UniProt P50995 (P50995 whole entry): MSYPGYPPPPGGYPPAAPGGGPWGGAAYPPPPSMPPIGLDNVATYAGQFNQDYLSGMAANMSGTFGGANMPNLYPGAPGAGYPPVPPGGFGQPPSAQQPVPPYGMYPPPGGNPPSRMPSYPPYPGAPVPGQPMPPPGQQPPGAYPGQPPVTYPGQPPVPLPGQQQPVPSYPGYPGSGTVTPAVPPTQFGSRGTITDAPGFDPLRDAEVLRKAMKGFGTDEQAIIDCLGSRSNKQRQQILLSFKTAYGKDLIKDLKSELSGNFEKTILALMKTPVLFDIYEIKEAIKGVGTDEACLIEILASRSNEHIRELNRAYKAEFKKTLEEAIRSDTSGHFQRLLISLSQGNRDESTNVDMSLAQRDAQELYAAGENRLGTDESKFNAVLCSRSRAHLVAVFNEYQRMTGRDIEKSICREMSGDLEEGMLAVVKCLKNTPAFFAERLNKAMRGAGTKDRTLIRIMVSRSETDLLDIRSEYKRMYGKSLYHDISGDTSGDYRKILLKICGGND
Sequence of UniProt Q9NQG5 (Q9NQG5 whole entry): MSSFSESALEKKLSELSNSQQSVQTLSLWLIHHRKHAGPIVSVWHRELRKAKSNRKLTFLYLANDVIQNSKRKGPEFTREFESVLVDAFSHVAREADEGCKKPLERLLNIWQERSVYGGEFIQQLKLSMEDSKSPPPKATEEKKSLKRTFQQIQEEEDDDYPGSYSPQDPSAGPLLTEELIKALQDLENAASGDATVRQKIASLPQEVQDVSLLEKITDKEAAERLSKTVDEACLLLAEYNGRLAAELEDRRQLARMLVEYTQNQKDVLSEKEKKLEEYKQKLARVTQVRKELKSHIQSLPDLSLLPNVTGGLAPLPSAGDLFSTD
Sequence of UniProt Q6NUK4 (Q6NUK4 whole entry): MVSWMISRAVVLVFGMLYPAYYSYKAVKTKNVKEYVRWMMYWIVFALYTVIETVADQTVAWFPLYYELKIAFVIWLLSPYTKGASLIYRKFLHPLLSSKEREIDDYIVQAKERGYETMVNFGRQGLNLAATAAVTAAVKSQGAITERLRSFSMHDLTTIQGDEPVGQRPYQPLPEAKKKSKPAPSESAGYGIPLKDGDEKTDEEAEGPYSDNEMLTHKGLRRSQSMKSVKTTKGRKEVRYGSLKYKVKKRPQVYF
Sequence of UniProt P14209 (P14209 whole entry): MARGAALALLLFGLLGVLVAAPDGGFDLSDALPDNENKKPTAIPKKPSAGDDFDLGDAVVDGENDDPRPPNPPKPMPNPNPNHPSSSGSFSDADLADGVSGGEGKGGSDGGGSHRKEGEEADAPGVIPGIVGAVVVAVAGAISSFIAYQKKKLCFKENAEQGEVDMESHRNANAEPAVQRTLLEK
Sequence of UniProt Q96HY6 (Q96HY6 whole entry): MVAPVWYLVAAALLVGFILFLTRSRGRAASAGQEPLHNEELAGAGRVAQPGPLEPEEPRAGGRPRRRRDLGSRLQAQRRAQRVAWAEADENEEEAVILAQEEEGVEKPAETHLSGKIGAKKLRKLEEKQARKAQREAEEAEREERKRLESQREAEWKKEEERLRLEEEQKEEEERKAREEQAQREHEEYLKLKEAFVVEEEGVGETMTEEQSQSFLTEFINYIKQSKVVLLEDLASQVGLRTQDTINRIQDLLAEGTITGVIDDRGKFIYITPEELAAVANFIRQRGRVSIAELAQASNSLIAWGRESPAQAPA
Sequence of UniProt Q96BP3 (Q96BP3 whole entry): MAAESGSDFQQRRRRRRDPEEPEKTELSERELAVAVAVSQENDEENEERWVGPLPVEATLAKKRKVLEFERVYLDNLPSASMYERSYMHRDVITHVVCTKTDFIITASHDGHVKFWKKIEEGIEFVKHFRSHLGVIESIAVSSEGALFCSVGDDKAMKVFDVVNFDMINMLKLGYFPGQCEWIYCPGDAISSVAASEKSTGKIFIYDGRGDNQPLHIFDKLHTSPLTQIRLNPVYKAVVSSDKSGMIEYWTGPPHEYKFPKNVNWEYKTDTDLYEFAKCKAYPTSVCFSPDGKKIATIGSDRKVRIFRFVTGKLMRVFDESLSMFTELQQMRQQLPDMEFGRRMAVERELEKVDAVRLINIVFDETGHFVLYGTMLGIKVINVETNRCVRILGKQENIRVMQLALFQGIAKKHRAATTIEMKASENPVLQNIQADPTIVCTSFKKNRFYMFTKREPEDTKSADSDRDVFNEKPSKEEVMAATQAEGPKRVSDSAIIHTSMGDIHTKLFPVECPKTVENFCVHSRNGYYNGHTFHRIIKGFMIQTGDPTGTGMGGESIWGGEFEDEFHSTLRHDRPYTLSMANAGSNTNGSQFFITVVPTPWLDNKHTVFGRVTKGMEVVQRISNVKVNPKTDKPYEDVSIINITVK
Sequence of UniProt O60890 (O60890 whole entry): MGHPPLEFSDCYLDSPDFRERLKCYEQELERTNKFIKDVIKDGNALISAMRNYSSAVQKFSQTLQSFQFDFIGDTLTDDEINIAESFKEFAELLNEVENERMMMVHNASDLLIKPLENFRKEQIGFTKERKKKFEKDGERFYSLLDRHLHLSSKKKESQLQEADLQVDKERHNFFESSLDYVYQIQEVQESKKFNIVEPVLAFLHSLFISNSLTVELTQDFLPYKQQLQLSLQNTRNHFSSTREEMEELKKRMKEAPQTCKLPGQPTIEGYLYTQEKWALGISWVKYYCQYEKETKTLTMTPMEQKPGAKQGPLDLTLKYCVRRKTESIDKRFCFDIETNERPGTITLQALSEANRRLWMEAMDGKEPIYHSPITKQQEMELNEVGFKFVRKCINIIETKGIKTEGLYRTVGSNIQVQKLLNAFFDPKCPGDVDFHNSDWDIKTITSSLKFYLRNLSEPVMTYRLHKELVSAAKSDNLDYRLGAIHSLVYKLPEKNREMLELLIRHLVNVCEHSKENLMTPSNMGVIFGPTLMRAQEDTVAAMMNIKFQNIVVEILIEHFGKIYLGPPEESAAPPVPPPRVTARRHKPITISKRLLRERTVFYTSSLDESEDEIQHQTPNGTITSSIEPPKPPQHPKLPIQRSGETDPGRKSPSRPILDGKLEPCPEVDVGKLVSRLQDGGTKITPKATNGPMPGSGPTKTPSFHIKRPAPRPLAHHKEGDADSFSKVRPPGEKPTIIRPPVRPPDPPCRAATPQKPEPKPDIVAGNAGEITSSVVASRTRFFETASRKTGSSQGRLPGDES
Sequence of UniProt O75368 (O75368 whole entry): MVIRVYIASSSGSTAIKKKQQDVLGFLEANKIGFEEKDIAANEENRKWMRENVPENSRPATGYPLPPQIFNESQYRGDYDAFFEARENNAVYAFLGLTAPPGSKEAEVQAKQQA

Target	thermal stability z-score
AJUBA (UniProt Q96IF1)	-0.32
SH3BGRL (UniProt O75368)	0.42
YIF1B (UniProt Q5BJH7)	0.452
CTNNA1 (UniProt P35221)	0.319
ANXA11 (UniProt P50995)	3.8
PYROXD1 (UniProt Q8WU10)	0.569
RPRD1B (UniProt Q9NQG5)	0.793
ATP1B1 (UniProt P05026)	0.104
BNIP1 (UniProt Q12981)	0.261
RSRC2 (UniProt Q7L4I2)	0.668
RAVER1 (UniProt Q8IY67)	-0.141
OPHN1 (UniProt O60890)	-0.0389
DDRGK1 (UniProt Q96HY6)	-1.17
ERCC3 (UniProt P19447)	0.0686
TXNDC9 (UniProt O14530)	-0.0714
PPWD1 (UniProt Q96BP3)	-0.218
TPM4 (UniProt P67936)	0.31
ALDOA (UniProt P04075)	0.281
EIF3F (UniProt O00303)	-0.117
FOCAD (UniProt Q5VW36)	0.151
AP3D1 (UniProt O14617)	-0.494
CD99 (UniProt P14209)	0.901
CSTF1 (UniProt Q05048)	-0.533
RPS8 (UniProt P62241)	0.378

Target	thermal stability z-score
MIPEP (UniProt Q99797)	-0.162
TCEB3 (UniProt Q14241)	-0.0069
RANBP6 (UniProt O60518)	-0.296
LRR1 (UniProt Q96L50)	0.148
LEMD3 (UniProt Q9Y2U8)	0.161
POLE (UniProt Q07864)	-0.0751
REEP3 (UniProt Q6NUK4)	0.197
GOT2 (UniProt P00505)	0.218
EIF2S1 (UniProt P05198)	-0.375
FDXR (UniProt P22570)	-0.331
ARIH1 (UniProt Q9Y4X5)	-0.0195
SNRPGP15|SNRPG	1.63
SMG8 (UniProt Q8ND04)	-1.73
RAD54L2 (UniProt Q9Y4B4)	-0.0715
LIAS (UniProt O43766)	1.93
MSTO1 (UniProt Q9BUK6)	0.101
VPS36 (UniProt Q86VN1)	-0.308
PDE1A (UniProt P54750)	0.864
ITPR3 (UniProt Q14573)	-1.24
HSP90B1 (UniProt P14625)	-3.56
RBM12 (UniProt Q9NTZ6)	-0.205
TXNL1 (UniProt O43396)	-0.206
EXOC8 (UniProt Q8IYI6)	-0.0845
TCAF1 (UniProt Q9Y4C2)	0.246

Target	thermal stability z-score
HEXA (UniProt P06865)	-0.146
BLMH (UniProt Q13867)	0.51
FAM117B (UniProt Q6P1L5)	-1.14
GLTP (UniProt Q9NZD2)	0.912
MIEF1	-0.243
UBQLN1 (UniProt Q9UMX0)	2.04
BUB3 (UniProt O43684)	-0.0475
POLR2B (UniProt P30876)	0.77
ATL2 (UniProt Q8NHH9)	-0.223
ABCG2 (UniProt Q9UNQ0)	0.0159
DENND5B (UniProt Q6ZUT9)	0.0786
SGF29 (UniProt Q96ES7)	0.571
SLIRP (UniProt Q9GZT3)	-0.917
CCT3 (UniProt P49368)	0.066
FAM188A (UniProt Q9H8M7)	0.53
SNW1 (UniProt Q13573)	-0.497
CC2D1A (UniProt Q6P1N0)	0.117
RNF126 (UniProt Q9BV68)	-1
CTBP2 (UniProt P56545)	0.985
NRDC (UniProt O43847)	-0.0123
XYLB (UniProt O75191)	-0.0179
LOXL2 (UniProt Q9Y4K0)	-1.8
TUSC1 (UniProt Q2TAM9)	0.515
MRPS2 (UniProt Q9Y399)	0.15

Same assay, conditions: HeLa; lipoamide concentration 100 µM; arsenate co-treatment: none

Target	thermal stability z-score
AJUBA (UniProt Q96IF1)	-0.207
SH3BGRL (UniProt O75368)	0.213
YIF1B (UniProt Q5BJH7)	-0.197
CTNNA1 (UniProt P35221)	0.2
ANXA11 (UniProt P50995)	3.23
PYROXD1 (UniProt Q8WU10)	0.443
RPRD1B (UniProt Q9NQG5)	0.977
ATP1B1 (UniProt P05026)	-0.207
BNIP1 (UniProt Q12981)	-0.294
RSRC2 (UniProt Q7L4I2)	0.164
RAVER1 (UniProt Q8IY67)	-0.0728
OPHN1 (UniProt O60890)	0.0614
DDRGK1 (UniProt Q96HY6)	-0.728
ERCC3 (UniProt P19447)	0.0573
TXNDC9 (UniProt O14530)	-0.127
PPWD1 (UniProt Q96BP3)	-0.513
TPM4 (UniProt P67936)	0.407
ALDOA (UniProt P04075)	0.0525

Target	thermal stability z-score
EIF3F (UniProt O00303)	-0.0503
FOCAD (UniProt Q5VW36)	0.411
AP3D1 (UniProt O14617)	-0.336
CD99 (UniProt P14209)	0.721
CSTF1 (UniProt Q05048)	0.0516
RPS8 (UniProt P62241)	0.0867
MIPEP (UniProt Q99797)	0.0258
TCEB3 (UniProt Q14241)	0.00902
RANBP6 (UniProt O60518)	-0.155
LRR1 (UniProt Q96L50)	0.192
LEMD3 (UniProt Q9Y2U8)	0.209
POLE (UniProt Q07864)	-0.113
REEP3 (UniProt Q6NUK4)	-0.171
GOT2 (UniProt P00505)	0.18
EIF2S1 (UniProt P05198)	-0.142
FDXR (UniProt P22570)	-0.428
ARIH1 (UniProt Q9Y4X5)	-0.0439
SNRPGP15|SNRPG	0.677
